The text below walks through data of the supplement of paper PMC11061612.

Common to all, as to assay: Bliss excess, mean over the matrix (fraction); higher = more synergy
For assay [1], the system named is EW-13 (Ewing's Sarcoma). The gist of the method:
(§1)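 After 24 hours at 37°C and 5% CO2 in 1536-well plates, cells in DMEM/F12 or RPMI plus 10% FBS received two-drug dose matrices for 72 hours. Viability came from CellTiter-Glo 2.0 luminescence and was scaled as inhibition, anchored at 0 by vehicle wells and at 1 by blank wells. Combination Emax is taken as the second-highest inhibition in the matrix, and Bliss excess as the observed combination effect less EA + EB − EA·EB, with EA and EB the single-agent effects.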

Assay [2] relates to NB7 (Neuroblastoma). The gist of the method:
as §1

In assay [3] the test system is NH-12 (Neuroblastoma). A digest of the protocol: as §1
Assay [4] has as its system EMC-BAC-2 (Non-Small Cell Lung Carcinoma). A digest of the protocol: as §1
Assay [5] concerns KYSE-150 (Esophageal Squamous Cell Carcinoma). A digest of the protocol:
as §1

Assay [6] deals with JHH-7 (Hepatocellular Carcinoma). The gist of the method:
as §1

Assay [7] relates to OCUM-1 (Gastric Carcinoma). The gist of the method:
as §1

Assay [8] concerns OVISE (Ovarian Carcinoma). A digest of the protocol:
as §1

The test system of assay [9] is GI-1 (Glioblastoma). The gist of the method: as §1
For assay [10], the system named is MFE-319 (Endometrial Carcinoma). The gist of the method:
as §1

Assay [11] has as its system EW-18 (Ewing's Sarcoma). A digest of the protocol:
as §1

Assay [12] concerns H-EMC-SS (Chondrosarcoma). A digest of the protocol:
as §1

Assay [13] deals with PF-382 (T-Lymphoblastic Leukemia). A digest of the protocol:
as §1

The test system of assay [14] is BT-20 (Breast Carcinoma). The gist of the method: as §1
The subject of assay [15] is HSC-2 (Oral Cavity Carcinoma). A digest of the protocol:
as §1

For assay [16], the system named is NCI-N87 (Gastric Carcinoma). The gist of the method: as §1
Assay [17] deals with NCI-H513 (Other Solid Carcinomas). The gist of the method: as §1
Assay [18] concerns SNU-C1 (Colorectal Carcinoma). The gist of the method:
as §1

For assay [19], the system named is TGBC11TKB (Gastric Carcinoma). The gist of the method: as §1
Assay [20] has as its system LC4-1 (B-Lymphoblastic Leukemia). The gist of the method:
as §1

With `CCc1c2c(nc3ccc(O)cc13)-c1cc3c(c(=O)n1C2)COC(=O)[C@]3(O)CC` [SN-38] + O=C(c1cc(Cc2n[nH]c(=O)c3ccccc23)ccc1F)N1CCN(C(=O)C2CC2)CC1 [Olaparib] (first compound max 0.3 µM, 7x7, partner max 10 µM), the Bliss excess in [1] is 0.0804; in [2], 0.0625; in assay [3], -0.0089; in assay [4], 0.0721; in assay [5], 0.0762; in assay [6], 0.0299. Besides, the Bliss excess in assay [7] was 0.014; in assay [8], 0.0082; in [9], 0.0652; in assay [10], 0.0328; in assay [11] it was 0.034; in assay [12], 0.0825. The Bliss excess in assay [13] was 0.0471; in assay [14] it was 0.107; in assay [15], 0.102; in assay [16], 0.0599; in assay [17] it was 0.0188; in assay [18], -0.0419. Also, the Bliss excess in [19] amounted to 0.0814; in [20], 0.0234.
